# Patent US20200138734A1, “TOPICAL FORMULATION FOR TREATING BRUISING” (priority 2018, published 2020)
# Where two headings read alike, the source gives them in different places.
# Tested on: bruise
# [1] = lower concentrations within 2% to 20% by weight
smiles,measurement,setting,value
CCC(C)O (stereo not drawn) [2-Butanol],bruise resolution,"2-Butanol alone in the topical formulation, without penetrant",would not provide the bruise resolution
same,"side-effects (pain, itching, redness, exfoliation)",4% -12% 2-Butanol by weight,resolved
same,bruise resolution,10% 2-Butanol by weight of topical formulation,very good bruise resolution
same,"frequency and severity of side-effects, such as pain, itching, redness and exfoliation",higher concentrations within 2% to 20% by weight,increased
same,efficacy of bruise resolution,[1],decreased
same,frequency and severity of side-effects,[1],decreased
